Experimental data published in patent US20190231785A1, “PHOSPHODIESTERASE INHIBITOR TREATMENT” (Cyrano Therapeutics, Inc., priority 2012, published 2019).

Test system: asthmatic patients
Experiment: sGaw after dry powder inhalation, dose escalating single blind study (Examples 5 and 6)
Conditions: 1 mg IBMX
Experimental: (§1) To test this theory, asthmatic patients are enrolled in a dose escalating single blind study. On arrival to the clinic, subjects are allowed to rest for 20 minutes before baseline measurements of FEV1 (six recordings) and sGaw (five recordings) are made. Subjects receive a dry powder dispenser loaded with a dose of 2 mg theophylline or a dry powder carrier. […] After each inhalation, measurements of sGaw are made at 1, 3, 5, 10, 15, 20, 25, and 30 minutes.
On completion of the last recording, subjects inhale a 200 μg dose of salbutamol from a metered inhaler and a further measurement of sGaw is made after 15 minutes. Subjects are also monitored for coughing and are questioned about the taste of the drug.
as §1, with “Asthmatic patients” for “To test this theory, asthmatic patients”, “of 1” for “of 2”, “mg IBMX formulated as a dry powder” for “mg theophylline”
On completion of the last recording, subjects inhale a 200 μg dose of salbutamol from a metered inhaler and a further measurement of sGaw mad after 15 minutes. Subjects are also be monitored for coughing and are questioned about the taste of the drug.

In the case of `CC(C)Cn1c(=O)n(C)c(=O)c2[nH]cnc21` [IBMX, 3-isobutyl-1-methylxanthine], the “increase in sGaw compared with 200 μg salbutamol” value is reported as “comparable with that produced by salbutamol”, the “sGaw above the baseline measurement after 30 minutes” value is reported as 20% and the “time until sGaw baseline is reached” value is reported as “one and a half”.
